According to US9963456B2, “Pyrrolopyrimidine compound or salt thereof and compositions containing the pyrrolopyrimidine compound or salt thereof” (TAIHO PHARMACEUTICAL CO., LTD., priority 2014, dated 2018):

How the values were obtained:
[1] = target: NAE (heterodimer of APPBP1 and UBA3) (Homo sapiens (Human), UniProt Q8TBC4); assay: Nedd8 conjugation inhibitory activity (AlphaScreen assay); assay type: biochemical; conditions: purified NAE, GST-UBC12, Biotin-Nedd8, ATP
carbonic anhydrase II = carbonic anhydrase II (Homo sapiens (Human), UniProt P00918); assay: Carbonic anhydrase II enzyme activity inhibition (4-NPA esterase activity); assay type: biochemical; conditions: 4-nitrophenyl acetate esterase activity, absorbance at 405 nm

NAE (heterodimer of APPBP1 and UBA3), sequence (Q8TBC4 whole entry): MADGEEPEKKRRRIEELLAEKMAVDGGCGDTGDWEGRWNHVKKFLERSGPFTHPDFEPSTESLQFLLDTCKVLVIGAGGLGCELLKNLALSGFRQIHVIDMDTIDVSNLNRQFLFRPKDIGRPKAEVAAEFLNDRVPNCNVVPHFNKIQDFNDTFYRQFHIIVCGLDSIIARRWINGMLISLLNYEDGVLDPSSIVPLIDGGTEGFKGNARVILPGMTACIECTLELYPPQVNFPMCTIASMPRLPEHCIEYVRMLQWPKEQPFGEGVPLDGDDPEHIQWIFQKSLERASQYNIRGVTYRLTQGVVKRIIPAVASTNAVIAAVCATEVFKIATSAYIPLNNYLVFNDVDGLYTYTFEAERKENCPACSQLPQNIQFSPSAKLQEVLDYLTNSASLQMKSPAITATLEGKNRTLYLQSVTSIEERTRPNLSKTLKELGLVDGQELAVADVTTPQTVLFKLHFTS
NAE (heterodimer of APPBP1 and UBA3), sequence (Q13564 whole entry partner): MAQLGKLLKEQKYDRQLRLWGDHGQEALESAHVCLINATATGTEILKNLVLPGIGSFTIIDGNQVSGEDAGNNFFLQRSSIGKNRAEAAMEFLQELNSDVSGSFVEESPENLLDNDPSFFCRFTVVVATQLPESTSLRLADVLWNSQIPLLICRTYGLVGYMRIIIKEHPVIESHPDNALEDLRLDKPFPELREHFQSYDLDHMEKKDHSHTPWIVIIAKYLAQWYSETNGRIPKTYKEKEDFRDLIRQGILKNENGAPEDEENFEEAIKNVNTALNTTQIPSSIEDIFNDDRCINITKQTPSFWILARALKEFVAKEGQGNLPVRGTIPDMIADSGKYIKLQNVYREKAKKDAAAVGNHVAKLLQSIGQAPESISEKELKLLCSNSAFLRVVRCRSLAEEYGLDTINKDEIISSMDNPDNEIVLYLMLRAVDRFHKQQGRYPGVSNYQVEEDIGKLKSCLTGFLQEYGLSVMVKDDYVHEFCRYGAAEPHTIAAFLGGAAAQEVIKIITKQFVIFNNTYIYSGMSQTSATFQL

SMILES	IC50 [1] [µM]	IC50 (carbonic anhydrase II) [µM]
Cc1ccccc1-c1nc(-c2cn([C@@H]3O[C@H](CNS(N)(=O)=O)[C@@H](O)[C@H]3O)c3ncnc(N)c23)cs1 [Example 2, 4-[4-Amino-7-[(2R,3R,4S,5R)-3,4-dihydroxy-5-[(sulfamoylamino)methyl]tetrahydrofuran-2-yl]pyrrolo[2,3-d]pyrimidin-5-yl]-2-(o-tolyl)thiazole]	0.0071	> 1
Nc1ncnc2c1c(C#Cc1ccc(OCc3ccccc3)cc1)cn2[C@@H]1O[C@H](CNS(N)(=O)=O)[C@@H](O)[C@H]1O [Example 3, 4-Amino-5-[2-(4-benzyloxyphenyl)ethynyl]-7-[(2R,3R,4S,5R)-3,4-dihydroxy-5-[(sulfamoylamino)methyl]tetrahydrofuran-2-yl]pyrrolo[2,3-d]pyrimidine]	–	> 1
Nc1ncnc2c1c(C#Cc1cccc3ccccc13)cn2[C@@H]1O[C@H](CNS(N)(=O)=O)[C@@H](O)[C@H]1O [Example 6, 4-Amino-7-[(2R,3R,4S,5R)-3,4-dihydroxy-5-[(sulfamoylamino)methyl]tetrahydrofuran-2-yl]-5-[2-(1-naphthyl)ethynyl]pyrrolo[2,3-d]pyrimidine]	–	> 1
Nc1ncnc2c1c(C#CC1(c3ccccc3)CC1)cn2[C@@H]1O[C@H](CNS(N)(=O)=O)[C@@H](O)[C@H]1O [Example 10, 4-Amino-7-[(2R,3R,4S,5R)-3,4-dihydroxy-5-[(sulfamoylamino)methyl]tetrahydrofuran-2-yl]-5-[2-(1-phenylcyclopropyl)ethynyl]pyrrolo[2,3-d]pyrimidine]	0.024	> 1
Nc1ncnc2c1c(-c1coc(-c3ccccc3)n1)cn2[C@@H]1O[C@H](CNS(N)(=O)=O)[C@@H](O)[C@H]1O [Example 12, 4-[4-Amino-7-[(2R,3R,4S,5R)-3,4-dihydroxy-5-[(sulfamoylamino)methyl]tetrahydrofuran-2-yl]pyrrolo[2,3-d]pyrimidin-5-yl]-2-phenyl-oxazol]	–	> 1
Nc1ncnc2c1c(C#Cc1ccccc1OC(F)(F)F)cn2[C@@H]1O[C@H](CNS(N)(=O)=O)[C@@H](O)[C@H]1O [Example 14, 4-Amino-7-[(2R,3R,4S,5R)-3,4-dihydroxy-5-[(sulfamoylamino)methyl]tetrahydrofuran-2-yl]-5-[2-[2-(trifluoromethoxy)phenyl]ethynyl]pyrrolo[2,3-d]pyrimidine]	–	> 1
CNc1cc(F)c(C#Cc2cn([C@@H]3O[C@H](CNS(N)(=O)=O)[C@@H](O)[C@H]3O)c3ncnc(N)c23)c(F)c1 [Example 25, 4-Amino-5-[2-[2,6-difluoro-4-(methylamino)phenyl]ethynyl]-7-[(2R,3R,4S,5R)-3,4-dihydroxy-5-[(sulfamoylamino)methyl]tetrahydrofuran-2-yl]pyrrolo[2,3-d]pyrimidine]	0.0048	> 1
Nc1ncnc2c1c(C#Cc1c(F)cc(N3CC[C@@H](F)C3)cc1F)cn2[C@@H]1O[C@H](CNS(N)(=O)=O)[C@@H](O)[C@H]1O [Example 29, 4-Amino-5-[2-[2,6-difluoro-4-[(3R)-3-fluoropyrrolidin-1-yl]phenyl]ethynyl]-7-[(2R,3R,4S,5R)-3,4-dihydroxy-5-[(sulfamoylamino)methyl]tetrahydrofuran-2-yl]pyrrolo[2,3-d]pyrimidine]	0.0071	> 1
Nc1ncnc2c1c(C#CCc1ccccc1F)cn2[C@@H]1O[C@H](CNS(N)(=O)=O)[C@@H](O)[C@H]1O [Example 36, 4-Amino-7-[(2R,3R,4S,5R)-3,4-dihydroxy-5-[(sulfamoylamino)methyl]tetrahydrofuran-2-yl]-5-[3-(2-fluorophenyl)prop-1-ynyl]pyrrolo[2,3-d]pyrimidine]	–	> 1
Nc1ncnc2c1c(C#Cc1c(F)cc(N3CC(O)C3)cc1F)cn2[C@@H]1O[C@H](CNS(N)(=O)=O)[C@@H](O)[C@H]1O [Example 39, 4-Amino-5-[2-[2,6-difluoro-4-(3-hydroxyazetidin-1-yl)phenyl]ethynyl]-7-[(2R,3R,4S,5R)-3,4-dihydroxy-5-[(sulfamoylamino)methyl]tetrahydrofuran-2-yl]pyrrolo[2,3-d]pyrimidine]	–	> 1
Nc1ncnc2c1c(C#Cc1c(F)cc(N3CCC3)cc1F)cn2[C@@H]1O[C@H](CNS(N)(=O)=O)[C@@H](O)[C@H]1O [Example 43, 4-amino-5-[2-[4-(azetidin-1-yl)-2,6-difluoro-phenyl]ethynyl]-7-[(2R,3R,4S,5R)-3,4-dihydroxy-5-[(sulfamoylamino)methyl]tetrahydrofuran-2-yl]pyrrolo[2,3-d]pyrimidine]	0.0076	> 1
Nc1ncnc2c1c(C#Cc1ccccc1F)cn2[C@@H]1O[C@H](CNS(N)(=O)=O)[C@@H](O)[C@H]1O [Example 46, 4-Amino-7-[(2R,3R,4S,5R)-3,4-dihydroxy-5-[(sulfamoylamino)methyl]tetrahydrofuran-2-yl]-5-[2-(2-fluorophenyl)ethynyl]pyrrolo[2,3-d]pyrimidine]	0.013	> 1
COc1ccccc1C#Cc1cn([C@@H]2O[C@H](CNS(N)(=O)=O)[C@@H](O)[C@H]2O)c2ncnc(N)c12 [Example 47, 4-Amino-7-[(2R,3R,4S,5R)-3,4-dihydroxy-5-[(sulfamoylamino)methyl]tetrahydrofuran-2-yl]-5-[2-(2-methoxyphenyl)ethynyl]pyrrolo[2,3-d]pyrimidine]	0.0093	> 1
Nc1ncnc2c1c(C#CCC1CCCCC1)cn2[C@@H]1O[C@H](CNS(N)(=O)=O)[C@@H](O)[C@H]1O [Example 50, 4-Amino-5-(3-cyclohexylprop-1-ynyl)-7-[(2R,3R,4S,5R)-3,4-dihydroxy-5-[(sulfamoylamino)methyl]tetrahydrofuran-2-yl]pyrrolo[2,3-d]pyrimidine]	–	> 1
Nc1ncnc2c1c(C#Cc1ccc(OCc3ccccc3)cn1)cn2[C@@H]1O[C@H](CNS(N)(=O)=O)[C@@H](O)[C@H]1O [Example 52, 4-Amino-5-[2-(5-benzyloxy-2-pyridyl)ethynyl]-7-[(2R,3R,4S,5R)-3,4-dihydroxy-5-[(sulfamoylamino)methyl]tetrahydrofuran-2-yl]pyrrolo[2,3-d]pyrimidine]	0.008	> 1
CCCOc1cccc(F)c1C#Cc1cn([C@@H]2O[C@H](CNS(N)(=O)=O)[C@@H](O)[C@H]2O)c2ncnc(N)c12 [Example 60, 4-Amino-7-[(2R,3R,4S,5R)-3,4-dihydroxy-5-[(sulfamoylamino)methyl]tetrahydrofuran-2-yl]-5-[2-(2-fluoro-6-propoxy-phenyl)ethynyl]pyrrolo[2,3-d]pyrimidine]	0.0085	> 1
CCSc1cccc(F)c1C#Cc1cn([C@@H]2O[C@H](CNS(N)(=O)=O)[C@@H](O)[C@H]2O)c2ncnc(N)c12 [Example 66, 4-Amino-7-[(2R,3R,4S,5R)-3,4-dihydroxy-5-[(sulfamoylamino)methyl]tetrahydrofuran-2-yl]-5-[2-(2-ethylsulfanyl-6-fluoro-phenyl)ethynyl]pyrrolo[2,3-d]pyrimidine]	0.0071	> 1
CCOc1cccc(F)c1C#Cc1cn([C@@H]2C=C(CNS(N)(=O)=O)[C@@H](O)[C@H]2O)c2ncnc(N)c12 [Example 129, 4-Amino-7-[(1R,4R,5S)-4,5-dihydroxy-3-[(sulfamoylamino)methyl]cyclopent-2-en-1-yl]-5-[2-(2-ethoxy-6-fluoro-phenyl)ethynyl]pyrrolo[2,3-d]pyrimidine]	–	> 1
CSc1cccc(F)c1C#Cc1cn([C@@H]2C=C(CNS(N)(=O)=O)[C@@H](O)[C@H]2O)c2ncnc(N)c12 [Example 130, 4-Amino-7-[(1R,4R,5S)-4,5-dihydroxy-3-[(sulfamoylamino)methyl]cyclopent-2-en-1-yl]-5-[2-(2-fluoro-6-methylsulfanyl-phenyl)ethynyl]pyrrolo[2,3-d]pyrimidine]	0.004	–
Nc1ncnc2c1c(C#Cc1ccccc1)cn2[C@H]1C[C@H](O)[C@@H](COS(N)(=O)=O)O1 [Example 134, [(2R,3S,5R)-5-[4-Amino-5-(2-phenylethynyl)pyrrolo[2,3-d]pyrimidin-7-yl]-3-hydroxy-tetrahydrofuran-2-yl]methyl sulfamate]	0.018	–
Cc1ccc(Cn2cc(-c3cn([C@H]4C[C@H](O)[C@@H](COS(N)(=O)=O)O4)c4ncnc(N)c34)cn2)cc1C [Example 137, [(2R,3S,5R)-5-[4-Amino-5-[1-[(3,4-dimethylphenyl)methyl]pyrazol-4-yl]pyrrolo[2,3-d]pyrimidin-7-yl]-3-hydroxy-tetrahydrofuran-2-yl]methyl sulfamate]	0.019	–
Cc1ccc(Cn2cc(-c3cn([C@@H]4C[C@H](COS(N)(=O)=O)[C@@H](O)C4)c4ncnc(N)c34)cn2)cc1C [Example 138, [(1R,2S,4R)-4-[4-Amino-5-[1-[(3,4-dimethylphenyl)methyl]pyrazol-4-yl]pyrrolo[2,3-d]pyrimidin-7-yl]-2-hydroxy-cyclopentyl]methyl sulfamate]	0.0065	–
Cc1ccccc1-c1nc(-c2cn([C@H]3C[C@H](O)[C@@H](COS(N)(=O)=O)O3)c3ncnc(N)c23)cs1 [Example 139, [(2R,3S,5R)-5-[4-Amino-5-[2-(o-tolyl)thiazol-4-yl]pyrrolo[2,3-d]pyrimidin-7-yl]-3-hydroxy-tetrahydrofuran-2-yl]methyl sulfamate]	0.017	–
CCS(=O)(=O)c1cccc(F)c1C#Cc1cn([C@@H]2C[C@H](CNS(N)(=O)=O)[C@@H](O)[C@H]2O)c2ncnc(N)c12 [Example 142, 4-Amino-7-[(1R,2S,3R,4R)-2,3-dihydroxy-4-[(sulfamoylamino)methyl]cyclopentyl]-5-[2-(2-ethylsulfonyl-6-fluoro-phenyl)ethynyl]pyrrolo[2,3-d]pyrimidine]	0.009	–
CCS(=O)(=O)c1cccc(F)c1C#Cc1cn([C@H]2C[C@H](O)[C@@H](CNS(N)(=O)=O)O2)c2ncnc(N)c12 [Example 143, 4-Amino-5-[2-(2-ethylsulfonyl-6-fluoro-phenyl)ethynyl]-7-[(2R,4S,5R)-4-hydroxy-5-[(sulfamoylamino)methyl]tetrahydrofuran-2-yl]pyrrolo[2,3-d]pyrimidine]	0.024	> 1
